# Measurements published in ChEMBL document CHEMBL3885881, “DrugMatrix”.
# Species: Rattus norvegicus
# Experiment: DrugMatrix - Regimen: Daily Repeat
# Type: toxicity, organism-based, Sprague-Dawley
# Design: regimen Daily Repeat, gender Male, age 6-8 weeks
# Details: in vivo, po, route oral GAVAGE, […]; for ABSOLUTE BASOPHIL / ABSOLUTE EOSINOPHIL / ABSOLUTE LYMPHOCYTE / ABSOLUTE SEGMENTED NEUTROPHIL / BASOPHIL / EOSINOPHIL / ERYTHROCYTE COUNT / HEMOGLOBIN / LEUKOCYTE COUNT / LYMPHOCYTE / MEAN CORPUSCULAR HEMOGLOBIN / MEAN CORPUSCULAR HEMOGLOBIN CONCENTRATION / MEAN CORPUSCULAR VOLUME / MONOCYTE / NEUTROPHIL / NUCLEATED RED BLOOD CELLS / PLATELET COUNT: tissue Blood; for ALANINE AMINOTRANSFERASE / ALBUMIN / ALKALINE PHOSPHATASE / ASPARTATE AMINOTRANSFERASE / BLOOD UREA NITROGEN / CARBON DIOXIDE / CHLORIDE / CHOLESTEROL / CREATINE PHOSPHOKINASE / CREATININE / GLUCOSE / LACTATE DEHYDROGENASE / LIPASE / PHOSPHORUS / POTASSIUM / SODIUM / TOTAL BILIRUBIN / URIC ACID: tissue Plasma
# [1] = 20 mg/kg, 72 h, dose level Low, time 3 day
# [2] = 20 mg/kg, 120 h, dose level Low, time 5 day
# [3] = 600 mg/kg, 72 h, dose level High, time 3 day
# [4] = 600 mg/kg, 120 h, dose level High, time 5 day
structure (smiles),measurement,setting,value
CCCN(CCC)S(=O)(=O)c1ccc(C(=O)O)cc1 [PROBENECID],ABSOLUTE BASOPHIL,[1],0 CELLS/uL
same,ABSOLUTE EOSINOPHIL,[1],143 CELLS/uL
same,ABSOLUTE LYMPHOCYTE,[1],13997.67 CELLS/uL
same,ABSOLUTE SEGMENTED NEUTROPHIL,[1],1155.67 CELLS/uL
same,BASOPHIL,[1],0%
same,EOSINOPHIL,[1],1%
same,ERYTHROCYTE COUNT,[1],5.57 x10E6/uL
same,HEMOGLOBIN,[1],13.7 G/DL
same,LEUKOCYTE COUNT,[1],15.43 x10E3/uL
same,LYMPHOCYTE,[1],90.33%
same,MEAN CORPUSCULAR HEMOGLOBIN,[1],24.67 pg
same,MEAN CORPUSCULAR HEMOGLOBIN CONCENTRATION,[1],39.3 G/DL
same,MEAN CORPUSCULAR VOLUME,[1],62.8 fL
same,MONOCYTE,[1],1%
same,NEUTROPHIL,[1],7.67%
same,NUCLEATED RED BLOOD CELLS,[1],0 /100WBC
same,PLATELET COUNT,[1],1224.33 x10E3/uL
same,ALANINE AMINOTRANSFERASE,[1],70 u/L
same,ALBUMIN,[1],4 G/DL
same,ALKALINE PHOSPHATASE,[1],531.67 u/L
same,ASPARTATE AMINOTRANSFERASE,[1],87.67 u/L
same,BLOOD UREA NITROGEN,[1],11 mg/dL
same,CARBON DIOXIDE,[1],33.67 mmol/L
same,CHLORIDE,[1],100.67 MEQ/L
same,CHOLESTEROL,[1],81 mg/dL
same,CREATINE PHOSPHOKINASE,[1],196.67 u/L
same,CREATININE,[1],0.13 mg/dL
same,GLUCOSE,[1],157.33 mg/dL
same,LACTATE DEHYDROGENASE,[1],142.33 u/L
same,LIPASE,[1],10.67 u/L
same,PHOSPHORUS,[1],10.83 mg/dL
same,POTASSIUM,[1],6.5 MEQ/L
same,SODIUM,[1],141.87 MEQ/L
same,TOTAL BILIRUBIN,[1],0.13 mg/dL
same,URIC ACID,[1],1.4 mg/dL
same,ABSOLUTE BASOPHIL,[2],0 CELLS/uL
same,ABSOLUTE EOSINOPHIL,[2],118.67 CELLS/uL
same,ABSOLUTE LYMPHOCYTE,[2],12848.33 CELLS/uL
same,ABSOLUTE SEGMENTED NEUTROPHIL,[2],894.33 CELLS/uL
same,BASOPHIL,[2],0%
same,EOSINOPHIL,[2],0.67%
same,ERYTHROCYTE COUNT,[2],5.43 x10E6/uL
same,HEMOGLOBIN,[2],13.5 G/DL
same,LEUKOCYTE COUNT,[2],14.13 x10E3/uL
same,LYMPHOCYTE,[2],91%
same,MEAN CORPUSCULAR HEMOGLOBIN,[2],25.03 pg
same,MEAN CORPUSCULAR HEMOGLOBIN CONCENTRATION,[2],39.73 G/DL
same,MEAN CORPUSCULAR VOLUME,[2],62.93 fL
same,MONOCYTE,[2],2%
same,NEUTROPHIL,[2],6.33%
same,NUCLEATED RED BLOOD CELLS,[2],0 /100WBC
same,PLATELET COUNT,[2],1072.33 x10E3/uL
same,ALANINE AMINOTRANSFERASE,[2],70.67 u/L
same,ALBUMIN,[2],3.97 G/DL
same,ALKALINE PHOSPHATASE,[2],404.33 u/L
same,ASPARTATE AMINOTRANSFERASE,[2],114.67 u/L
same,BLOOD UREA NITROGEN,[2],13.67 mg/dL
same,CARBON DIOXIDE,[2],29.67 mmol/L
same,CHLORIDE,[2],102 MEQ/L
same,CHOLESTEROL,[2],63.33 mg/dL
same,CREATINE PHOSPHOKINASE,[2],910.33 u/L
same,CREATININE,[2],0.19 mg/dL
same,GLUCOSE,[2],178 mg/dL
same,LACTATE DEHYDROGENASE,[2],364 u/L
same,LIPASE,[2],10.33 u/L
same,PHOSPHORUS,[2],11.13 mg/dL
same,POTASSIUM,[2],6.49 MEQ/L
same,SODIUM,[2],141.5 MEQ/L
same,TOTAL BILIRUBIN,[2],0.23 mg/dL
same,URIC ACID,[2],1.67 mg/dL
same,ABSOLUTE BASOPHIL,[3],0 CELLS/uL
same,ABSOLUTE EOSINOPHIL,[3],106 CELLS/uL
same,ABSOLUTE LYMPHOCYTE,[3],14409.67 CELLS/uL
same,ABSOLUTE SEGMENTED NEUTROPHIL,[3],2126 CELLS/uL
same,BASOPHIL,[3],0%
same,EOSINOPHIL,[3],0.67%
same,ERYTHROCYTE COUNT,[3],5.2 x10E6/uL
same,HEMOGLOBIN,[3],13.4 G/DL
same,LEUKOCYTE COUNT,[3],16.7 x10E3/uL
same,LYMPHOCYTE,[3],86.33%
same,MEAN CORPUSCULAR HEMOGLOBIN,[3],25.73 pg
same,MEAN CORPUSCULAR HEMOGLOBIN CONCENTRATION,[3],40.6 G/DL
same,MEAN CORPUSCULAR VOLUME,[3],63.43 fL
same,MONOCYTE,[3],0.33%
same,NEUTROPHIL,[3],12.67%
same,NUCLEATED RED BLOOD CELLS,[3],0.33 /100WBC
same,PLATELET COUNT,[3],1182.33 x10E3/uL
same,ALANINE AMINOTRANSFERASE,[3],83.67 u/L
same,ALBUMIN,[3],3.93 G/DL
same,ALKALINE PHOSPHATASE,[3],534.33 u/L
same,ASPARTATE AMINOTRANSFERASE,[3],87 u/L
same,BLOOD UREA NITROGEN,[3],11 mg/dL
same,CARBON DIOXIDE,[3],27.67 mmol/L
same,CHLORIDE,[3],99.67 MEQ/L
same,CHOLESTEROL,[3],58 mg/dL
same,CREATINE PHOSPHOKINASE,[3],599.67 u/L
same,CREATININE,[3],0.18 mg/dL
same,GLUCOSE,[3],155.67 mg/dL
same,LACTATE DEHYDROGENASE,[3],259.33 u/L
same,LIPASE,[3],10.33 u/L
same,PHOSPHORUS,[3],10.97 mg/dL
same,POTASSIUM,[3],6.4 MEQ/L
same,SODIUM,[3],139.6 MEQ/L
same,TOTAL BILIRUBIN,[3],0.27 mg/dL
same,URIC ACID,[3],1.33 mg/dL
same,ABSOLUTE BASOPHIL,[4],0 CELLS/uL
same,ABSOLUTE EOSINOPHIL,[4],58.67 CELLS/uL
same,ABSOLUTE LYMPHOCYTE,[4],15278 CELLS/uL
same,ABSOLUTE SEGMENTED NEUTROPHIL,[4],1476.33 CELLS/uL
same,BASOPHIL,[4],0%
same,EOSINOPHIL,[4],0.33%
same,ERYTHROCYTE COUNT,[4],6 x10E6/uL
same,HEMOGLOBIN,[4],14.33 G/DL
same,LEUKOCYTE COUNT,[4],16.87 x10E3/uL
same,LYMPHOCYTE,[4],90.67%
same,MEAN CORPUSCULAR HEMOGLOBIN,[4],23.93 pg
same,MEAN CORPUSCULAR HEMOGLOBIN CONCENTRATION,[4],39.6 G/DL
same,MEAN CORPUSCULAR VOLUME,[4],60.4 fL
same,MONOCYTE,[4],0.33%
same,NEUTROPHIL,[4],8.67%
same,NUCLEATED RED BLOOD CELLS,[4],0 /100WBC
same,PLATELET COUNT,[4],1128.33 x10E3/uL
same,ALANINE AMINOTRANSFERASE,[4],55.67 u/L
same,ALBUMIN,[4],4.37 G/DL
same,ALKALINE PHOSPHATASE,[4],404.67 u/L
same,ASPARTATE AMINOTRANSFERASE,[4],96.33 u/L
same,BLOOD UREA NITROGEN,[4],20.33 mg/dL
same,CARBON DIOXIDE,[4],31 mmol/L
same,CHLORIDE,[4],101.67 MEQ/L
same,CHOLESTEROL,[4],55.33 mg/dL
same,CREATINE PHOSPHOKINASE,[4],902 u/L
same,CREATININE,[4],0.25 mg/dL
same,GLUCOSE,[4],169 mg/dL
same,LACTATE DEHYDROGENASE,[4],213.67 u/L
same,LIPASE,[4],10 u/L
same,PHOSPHORUS,[4],10.3 mg/dL
same,POTASSIUM,[4],5.85 MEQ/L
same,SODIUM,[4],142.7 MEQ/L
same,TOTAL BILIRUBIN,[4],0.27 mg/dL
same,URIC ACID,[4],1.8 mg/dL
